This assay concerns the target Glutamate receptor ionotropic, NMDA 1 (Rattus norvegicus, UniProt P35439).

Values joined by “and” are separate entries in the source; they are usually repeats but may differ in a detail not shown here. Identical values can stand only once.

By Ki is commonly meant the equilibrium dissociation constant of an inhibitor or competing ligand from its target.

For `CC1(C2(C)COC(c3ccccc3)(c3ccccc3)O2)CCCCN1` (stereo unspecified) [CAS_4792-18-1], the Ki is 2.22 µM and 2.34 µM and > 10 µM and 3.79 µM.

The values are drawn from BindingDB's records for PubMed 3016248 (The Johns Hopkins University, 1986).
